In this assay the target is T1, cyclooxygenase (COX)-2 (Homo sapiens, UniProt P35354).
T1 construct: gene PTGS2
T1 sequence (P35354 18-604): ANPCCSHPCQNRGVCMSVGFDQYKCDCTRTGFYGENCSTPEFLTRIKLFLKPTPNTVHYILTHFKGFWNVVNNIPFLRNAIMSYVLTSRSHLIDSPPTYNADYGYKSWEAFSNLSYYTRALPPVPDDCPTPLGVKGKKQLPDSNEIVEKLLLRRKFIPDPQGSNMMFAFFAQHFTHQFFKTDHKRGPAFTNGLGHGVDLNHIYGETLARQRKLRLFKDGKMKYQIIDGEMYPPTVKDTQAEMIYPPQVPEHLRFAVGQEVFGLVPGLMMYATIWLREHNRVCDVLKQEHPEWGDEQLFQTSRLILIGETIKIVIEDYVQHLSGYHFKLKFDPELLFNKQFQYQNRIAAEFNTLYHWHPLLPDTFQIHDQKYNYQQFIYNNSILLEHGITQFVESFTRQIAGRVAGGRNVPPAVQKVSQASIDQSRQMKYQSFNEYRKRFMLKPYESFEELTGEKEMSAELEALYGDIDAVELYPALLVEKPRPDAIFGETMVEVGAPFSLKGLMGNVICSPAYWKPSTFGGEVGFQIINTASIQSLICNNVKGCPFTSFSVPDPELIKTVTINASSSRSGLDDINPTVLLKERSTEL
The assay can be described thus: LPS-stimulated human whole blood PGE2 (RIA); also HCA7 cells (COX-2 only), IC50 […], with washout.

Structures are written as SMILES.

In general, IC50 refers to the concentration at which inhibition is half-maximal. Low readings indicate greater potency, high ones weaker potency. Take `CC(C)(Oc1ccc(CCNC(=O)c2ccc(Cl)cc2)cc1)C(=O)NS(=O)(=O)c1ccccc1` [compound 6, AA520]: the IC50 was determined as 100 nM.

(Values after article PMC11628281, “A sulfonimide derivative of bezafibrate as a dual inhibitor of cyclooxygenase-2 and PPARα” (Frontiers in Pharmacology, 2024).)
